The structures appear in SMILES notation.

The subject of assay [1] is NRF2 and AKR1C3 in HPAF II cells. Conditions: 0.875, 1.75, 3.5, 7 µM SFN, overnight, with increasing concentration. The protocol: A solution of SFN compound (Sulforaphane, NRF2 activator) was added to HPAF II cell suspension. The mixture was cultured overnight in a 37°C, 5% CO2 incubator. The cell protein lysate was collected for Western Blotting (WB) detection. The experiment consisted of five groups: 0.5% DMSO, 0.875 µM SFN, 1.75 µM SFN, 3.5 µM SFN, and 7 µM SFN. HPAF II cells were treated with different concentrations of the NRF2 activator SFN, and then subjected to Western Blotting to detect the expressions of NRF2 and AKR1C3.

The subject of assay [2] is cell lines and mouse tumor models of BRCA pathogenic mutations. The conditions noted are these: in vitro and in vivo pharmacodynamic experiments; data of WO2023174319A; cited from earlier work.
A further assay relates to NCI-H460 P53KO #1 cells. Nature of the assay: In vitro proliferation under normoxia conditions (CTG, 72 hours), Example 29. The class given is cell-based, human. The conditions noted are these: Table 25. The method, then:
(§1) • 1) NCI-H460 and NCI-H460 P53KO # 1 cell suspensions were added to 96-well plate (100 µL per well), with a cell density of 2000 cells/well. • 2) The cells were cultured overnight in a 37°C, 5% CO2 incubator. • 3) Compound Treatment
(§2) Monotherapy: 24 hours after cell plating, each well was supplemented with 99.5 µL of growth medium. Then, 0.5 µL of test compounds at different concentrations was added. The plate was gently shaken to ensure even mixing, and then placed in a 37°C, 5% CO2 incubator.
(§3) Combination therapy: 24 hours after cell plating, each well was supplemented with 99 µL of growth medium. Then, 0.5 µL of the combination compound was added. The plate was gently shaken to ensure even mixing, and then placed in an incubator for 2 hours. Then, 0.5µL of test compounds at different concentrations was added. The plate was gently shaken to ensure even mixing, and then placed in a 37°C, 5% CO2 incubator. • 4) The cell plate was placed in the incubator for 72 hours. • 5) The cell plate to be tested was placed at room temperature and equilibrated for 30 minutes, and 100 µL of medium was discarded from each well. • 6) 25 µL of CTG reagent was added to each well, placed at a fast shaker to shake for 2 minutes, and placed at room temperature for 30 minutes (protected from light). • 7) The chemiluminescence signal value was read using a multifunctional microplate reader with a reading time of 1000 ms. • 8) IC50 (half maximal inhibitory concentration) values were calculated using GraphPad Prism 5 software.

The next assay relates to NCI-H460 cells. Described as above. The class given is cell-based. The method, then: as §1, §2, §3
For the next assay, the system named is H460 cells. Nature of the assay: In vitro proliferation inhibition experiment (CTG, 72 hours), Example 20. Type of assay: cell-based. The conditions noted are these: Homo sapiens, NCI-H460, read-out: Inhibition rate result / %. The method, then:
(§4) • 1) H460 and HPAF-II cell suspensions were added to a 96-well plate (100 µL per well), with cell densities of 2000 cells/well and 20000 cells/well, respectively. • 2) The cells were cultured overnight in a 37°C, 5% CO2 incubator. • 3) Compound Treatment
(§5) Combination therapy: 24 hours after cell plating, each well was supplemented with 99 µL of growth medium. Then, 0.5 µL of Nutlin-3 or RITA was added to each well. The plate was gently shaken to ensure even mixing, and then placed in an incubator for 2 hours. Then, 0.5 µL of test compounds at different concentrations was added. The plate was gently shaken to ensure even mixing, and then placed in a 37°C, 5% CO2 incubator.
(§6) Monotherapy: 24 hours after cell plating, each well was supplemented with 99.5 µL of growth medium. Then, 0.5 µL of test compounds at different concentrations was added. The plate was gently shaken to ensure even mixing, and then placed in a 37°C, 5% CO2 incubator. • 4) The cell plate was placed in the incubator for 72 hours. • 5) The cell plate to be tested was placed at room temperature and equilibrated for 30 minutes, and 100 µL of medium was discarded from each well. • 6) 25 µL of CTG reagent was added to each well, placed on a fast shaker to shake for 2 minutes, and placed at room temperature for 30 minutes (protected from light). • 7) The chemiluminescence signal value was read using a multifunctional microplate reader with a reading time of 1000 ms, and the corresponding inhibition rate data were calculated.

The subject of the next assay is HPAF-II cells. The description is as above. The class given is cell-based, human. Conditions: Homo sapiens, Table 15, HPAF-II, read-out: Inhibition rate/%. The protocol:
as §4, §5, §6

As to `C[S+]([O-])CCCCN=C=S` (stereo not drawn) [SFN, Sulforaphane], in assay [1], the “expression of AKR1C3” value is reported as “also increases simultaneously” and the “expression of NRF2” value is “increases significantly”.

Take `Cn1c(COP(=O)(NCCBr)NCCBr)cnc1[N+](=O)[O-]` [TH-302]: the “sensitivity of cell lines and mouse tumor models of BRCA pathogenic mutations” value in assay [2] is given as “more sensitive”.

In the case of `CN(C)C(=O)c1cccc(Oc2cc3c(cc2[N+](=O)[O-])OCCC3OP(=O)(N2CC2)N2CC2)c1` (stereo not drawn) [Compound C], the concentration for half-maximal inhibition (IC50) is 36.1 nM with NCI-H460 P53KO #1 cells (Homo sapiens, NCI-H460 P53KO # 1, normoxia, alone or + 3 µM AST-3021) and 2.05 nM in the assay on NCI-H460 cells (Homo sapiens, Table 25, normoxia, alone or + 3 µM AST-3021). In addition, the “Ratio, knockout / wild-type” value with NCI-H460 P53KO #1 cells (IC50 in NCI-H460 P53KO # 1 / NCI-H460) is 17.60. Besides, the “Ratio, Compound C/AST-3424” value in the assay with NCI-H460 P53KO #1 cells (NCI-H460 P53KO # 1, IC50 ratio) was determined as 6.62; in the assay with NCI-H460 cells (Table 25, IC50 ratio), 4.77.

With `OCc1ccc(-c2ccc(-c3ccc(CO)s3)o2)s1` [RITA], the inhibition at 0.025 µM with H460 cells (Table 13, H460, group 1: AST 0.5 nM, RITA 0.025 µM, AST + RITA 0.5+0.025) was found to be 22.3%. Besides, in the assay with H460 cells (Table 13, H460, group 2: AST 0.5 nM, RITA 0.05 µM, AST + RITA 0.5+0.05), the inhibition at 0.05 µM is 22.4%. Besides, the inhibition at 2.5 µM in the assay with HPAF-II cells (group 1: AST 60 nM, RITA 2.5 µM, AST + RITA 60+ 2.5) was 2.86%. Besides, in the assay on HPAF-II cells (group 2: AST 60 nM, RITA 5 µM, AST + RITA 60+ 5), the inhibition at 5 µM was 5.56%.

These data come from EP4796125A1, “TREATMENT OF PATIENT WITH NEGATIVE P53 GENE MUTATION, POSITIVE KRAS GENE MUTATION AND POSITIVE BRCA MUTATION” (Ascentawits Pharmaceuticals, Ltd., priority 2023, dated 2025).
